Results taken from patent US5112846A, “N-hydroxyamide, N-hydroxythioamide, hydroxyurea, and N-hydroxythiourea derivatives of selected nsaids as antiinflammatory agents” (Warner-Lambert Company, priority 1990, dated 1992).
pIC50: −log10 of the molar value.

Tests used:
5-Lipoxygenase = target: T1, 5-Lipoxygenase (Rattus norvegicus, UniProt P12527); assay: ARBL whole cell 5-lipoxygenase assay (LTB4 formation in RBL-1 cells, A23187 stimulated); format: cell-based; settings: RBL-1 cells; for pIC50: read-out: ARBL IC50 (inhibition of LTB4 formation); for inhibition at 16 µM: read-out: ARBL % inhibition of LTB4
T1 construct: host or cells: RBL-1 rat basophilic leukemia cells
T1 sequence (P12527 1-673): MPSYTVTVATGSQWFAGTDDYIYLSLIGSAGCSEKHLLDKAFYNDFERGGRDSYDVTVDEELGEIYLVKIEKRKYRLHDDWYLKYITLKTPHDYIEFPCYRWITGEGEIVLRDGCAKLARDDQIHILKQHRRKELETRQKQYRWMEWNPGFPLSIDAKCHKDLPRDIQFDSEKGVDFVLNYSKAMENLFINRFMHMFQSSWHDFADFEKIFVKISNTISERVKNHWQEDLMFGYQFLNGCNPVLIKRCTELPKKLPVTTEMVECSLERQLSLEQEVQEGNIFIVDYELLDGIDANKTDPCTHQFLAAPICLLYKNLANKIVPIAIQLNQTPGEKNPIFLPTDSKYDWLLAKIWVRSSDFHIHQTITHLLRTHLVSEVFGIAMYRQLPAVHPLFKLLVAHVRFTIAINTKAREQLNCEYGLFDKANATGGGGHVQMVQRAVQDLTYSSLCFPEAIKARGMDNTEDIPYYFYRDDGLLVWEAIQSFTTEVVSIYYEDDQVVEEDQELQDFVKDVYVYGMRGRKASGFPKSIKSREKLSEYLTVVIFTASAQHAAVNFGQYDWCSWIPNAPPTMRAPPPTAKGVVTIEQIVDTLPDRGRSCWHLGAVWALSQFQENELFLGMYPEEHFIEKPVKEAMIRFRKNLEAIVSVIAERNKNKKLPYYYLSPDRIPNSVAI
Description: (§1) ARBL/ARBC Whole Cell 5-Lipoxygenase and Cyclooxygenase Assays
(§2) The rat basophilic leukemia cell line (RBL-1) was obtained from the American Type Culture Collection (Rockville, MD).
(§3) Radioimmunoassay (RIA) kits of LTB4 and PGF2α were obtained from Amersham (Arlington Heights, IL) and Seragen (Boston, MA), respectively.
(§4) RBL-1 cells are grown in suspension culture in Eagle's minimum essential medium supplemented with 12% fetal bovine serum at 37° C. in an incubator supplied with air-5% carbon dioxide. Cells are harvested by centrifugation. They are washed with cold phosphate buffered saline pH 7.4 (PBS; NaCl, 7.1 g; Na2 HPO4, 1.15 g; KH2 PO4, 0.2 g; and KCl, 0.2 g/l). Cells are finally suspended in PBS containing 1.0 mM calcium at a density of 2×10^6 cells/ml. Cells are incubated with and without test agent (in DMSO) (1% DMSO is without effect on arachidonic acid metabolism) for ten minutes at room temperature. Calcium ionophore A23187 (5 μM) is added and cells are incubated for seven minutes at 37° C. The reaction is stopped by chilling the tubes on ice for ten minutes. Cells are separated by centrifugation and the supernatant is stored at -20° C. Aliquots (100 μl) are analyzed for LTB4 and PGF2α using radioimmunoassay kits as provided by the supplier.
(§5) Tables 1-4 contain biochemical data obtained from this whole cell assay either as IC50 s which are calculated as the amount of test compound causing 50% inhibition of LTB4 or PGF2α formation or % inhibition of LTB4 or PGF2α at the indicated amount expressed as μM.

Cyclooxygenase = target: T2, Cyclooxygenase (Rattus norvegicus, UniProt Q63921); assay: ARBC whole cell cyclooxygenase assay (PGF2α formation in RBL-1 cells, A23187 stimulated); format: cell-based; settings: RBL-1 cells; for pIC50: read-out: ARBC IC50 (inhibition of PGF2α formation); for inhibition at 16 µM: read-out: ARBC % inhibition of PGF2α
T2 construct: host or cells: RBL-1 rat basophilic leukemia cells
T2 sequence (Q63921 27-602): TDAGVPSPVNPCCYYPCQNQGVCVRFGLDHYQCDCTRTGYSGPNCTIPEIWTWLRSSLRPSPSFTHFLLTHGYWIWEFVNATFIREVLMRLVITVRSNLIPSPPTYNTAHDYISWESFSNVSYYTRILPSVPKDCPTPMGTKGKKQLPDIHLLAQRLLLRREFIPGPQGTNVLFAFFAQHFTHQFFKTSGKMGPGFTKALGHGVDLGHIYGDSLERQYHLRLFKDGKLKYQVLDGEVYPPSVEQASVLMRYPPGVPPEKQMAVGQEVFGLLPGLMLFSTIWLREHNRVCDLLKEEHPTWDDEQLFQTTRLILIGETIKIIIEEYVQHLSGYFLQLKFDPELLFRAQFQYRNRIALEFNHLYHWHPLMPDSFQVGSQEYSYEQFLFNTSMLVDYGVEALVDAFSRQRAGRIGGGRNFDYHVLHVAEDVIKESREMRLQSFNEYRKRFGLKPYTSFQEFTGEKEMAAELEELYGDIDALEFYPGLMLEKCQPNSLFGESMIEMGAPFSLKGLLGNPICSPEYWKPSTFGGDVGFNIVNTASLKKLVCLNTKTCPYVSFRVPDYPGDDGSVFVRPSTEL
Description: as §1, §2, §3, §4, §5

SMILES | pIC50 (5-Lipoxygenase) | pIC50 (Cyclooxygenase) | inhibition at 16 µM (5-Lipoxygenase) | inhibition at 16 µM (Cyclooxygenase)
CC(=O)N(O)Cc1ccccc1Nc1cccc(C(F)(F)F)c1 [Example 55] | 6.55 | 5.28 | – | –
CNC(=O)N(O)Cc1ccccc1Nc1cccc(C(F)(F)F)c1 [Example 56] | 6.92 | 5.66 | – | –
CCOC(=O)N(O)Cc1ccccc1Nc1cccc(C(F)(F)F)c1 [Example 57, N-Hydroxy-N-[[2-[[3-(trifluoromethyl)phenyl]amino]phenyl]methyl]carbamic acid, ethyl ester] | – | – | 100% | 91%
COC(=O)CCC(=O)N(O)Cc1c(C)n(C(=O)c2ccc(Cl)cc2)c2ccc(OC)cc12 [Example 65, 4-[[[1-(4-Chlorobenzoyl)-5-methoxy-2-methyl-1H-indol-3-yl]methyl]hydroxyamino]-4-oxo-butanoic acid, methyl ester] | 5.89 | 5.03 | – | –
CNC(=S)N(O)Cc1c(C)n(C(=O)c2ccc(Cl)cc2)c2ccc(OC)cc12 [Example 74, 1-(4-Chlorobenzoyl)-N-hydroxy-5-methoxy-2-methyl-N-[(methylamino)thioxomethyl]-1H-indole-3-methanamine] | 6.40 | 5.15 | – | –

More lines, now with the values ahead:

pIC50 (5-Lipoxygenase) | pIC50 (Cyclooxygenase) | inhibition at 16 µM (5-Lipoxygenase) | inhibition at 16 µM (Cyclooxygenase) | SMILES
6.74 | 5.30 | – | – | CC(=O)N(O)Cc1ccccc1Nc1c(Cl)ccc(C)c1Cl [Example 54, N-[[2-[(2,6-Dichloro-3-methylphenyl)amino]phenyl]methyl]-N-hydroxyacetamide]
5.96 | 4.85 | – | – | CCOC(=O)CC(=O)N(O)Cc1c(C)n(C(=O)c2ccc(Cl)cc2)c2ccc(OC)cc12 [Example 64, 3-[[[1-(4-Chlorobenzoyl)-5-methoxy-2-methyl-1H-indol-3-yl]methyl]hydroxyamino]-3-oxo-propanoic acid, ethyl ester]
– | – | 100% | 73% | COc1ccc2c(c1)c(CN(O)C(=O)N(C)C)c(C)n2C(=O)c1ccc(Cl)cc1 [Example 70, 1-(4-Chlorobenzoyl)-N-[(dimethylamino)carbonyl]-N-hydroxy-5-methoxy-2-methyl-1H-indole-3-methanamine]
– | – | 100% | 50% | C=CCNC(=O)N(O)Cc1c(C)n(C(=O)c2ccc(Cl)cc2)c2ccc(OC)cc12 [Example 71, 1-(4-Chlorobenzoyl)-N-hydroxy-5-methoxy-2-methyl-N-[(2-propenylamino)carbonyl]-1H-indole-3-methanamine]
